Experimental data: patent publication US7767642B2, “Therapeutic peptides for the treatment of metastatic cancer” (Arizona Biomedical Research Commission, priority 2005, dated 2010)
“And” between values parts separate entries of the source, which are not always exact repeats. Equal entries are not always repeated. Where no end group is shown, it is not given here. TAT = Protein Transduction Domain of the HIV protein TAT (trans-activating transcriptional activator protein), a cell-penetrating sequence

Tests used:
[1] = test system: MDA-MB-468 breast cancer cells; assay: Transwell collagen gel invasion assay, peptides delivered with Bioporter; type: cell-based
Description: FIG. 1. […] A collagen gel matrix was poured onto the bottom of 8 uM pore sized-transwell inserts (modified Boyden's chamber), then inverted into 20% FBS. Cells were incubated with 100 ng/ml of peptide (with Bioporter reagent to allow for cellular uptake), then added to the top of the Transwell. Cells (serum-free) were allowed to invade into the gel, the gel was removed and invading cells enumerated.
(§1) Peptide treatment and invasion assay: 8 um pore size Transwell inserts (Corning) will be inverted and coated with 90 ul of Type I collagen (rat tail, BD Scientific) gel mixture (2.2% sodium bicarbonate, 10× M199 media), and allowed to solidify for 30 minutes. Wells are then be inverted into DMEM with 20% fetal calf serum and allowed to rehydrate. Peptides are incubated with BioPORTER reagent (Sigma, St. Louis Mo.) for 5 minutes to promote cellular uptake, vortexed, and added to cells in serum-free media (10 ng/ml, 100 ng/ml and […] concentrations will be tested) and placed in the upper chamber of the Transwell. Cells will then be incubated for 2, 4 or 24 hours. Media is removed and gels fixed with 4% paraformaldehyde for 30 minutes and transferred to PBS, pH 7.4. Collagen gels will then either be stained with bizbenzamide for 40 minutes and all cells invaded into a gel enumerated or used in immunofluorescence assays. Invasion of peptide-treated cells are compared to PBS/bioporter treated controls or irrelevant peptide treatment.
To investigate the functional significance of MUC1 expression on breast cancer invasion, we have incubated invasive breast cancer cell lines with MUC1-mimetic peptides designed to the β-catenin interacting domain. We then monitored the effects of peptide treatment on invasion through a filter and into a collagen gel.
We performed initial experiments with these β-catenin-binding site (M2) peptides in MDA-MB-468 cells. […] We observed less than 15 M2 peptide-treated cells invaded into a collagen matrix in a 4 hour period, compared to approximately 125 cells in PBS controls.

[2] = test system: MDA-MB-231 breast cancer cells; assay: Invasion assay with TAT-conjugated MUC1-mimetic peptides; type: cell-based; conditions: MDA-MB-231, compared to control TAT peptide
Description: FIG. 4. Treatment of MDA-MB-231 cells with MEBTAT leads to a 5-fold decrease in cell invasiveness as compared to control TAT peptide in invasion assays.
as §1
We have designed TAT-conjugated MUC1-mimetic peptides for their ability to inhibit the invasion of MDA-MB-231 and MDA-MB-468 invasive breast cancer cell lines. […]

MDA-MB-231 cell line [3] = assay: Scid xenograft model Trial 1, i.p. treatment; type: in vivo; conditions: for animals with tumor regression / tumor regression in the regressing animal: once daily MWF
Description: Trial 1. The MDA-MB-231 cell line was injected (in matrigel) into the mammary fat pad of 24 mice. These mice were then divided into 3 groups and injected once daily, MWF, for 2 weeks.
Group IA was treated (i.p.) with 10 ug/g body weight MEBTAT peptide
Group IB was treated (i.p.) with 20 ug/g body weight MEBTAT peptide
Group IC was treated (i.p.) with 20 ug/g body weight TAT peptide
At the end of 2 weeks, we had 27% tumor regression in 1/7 animals in group IA, 7% tumor regression in 1/7 animals in group IB, and no tumor regression (0/7) in group IC.
All tumors were surgically resected 3 days after final drugging, and the mice were monitored for an additional 10 days. […] This correlates to a 25% increase in overall survival time for the animals taking 20 ug/g body weight of MEBTAT compared to TAT.

MDA-MB-231 cell line [4] = assay: Scid xenograft model Trial II, i.v. treatment; type: in vivo; conditions: 20 ug/g body weight i.v.
Description: Trial II: The MDA-MB-231 cell line was injected (in matrigel) into the mammary fat pad of 16 mice. These mice were then divided into 2 groups and injected once daily, MTWThF, for 2 weeks.
Group IIA was treated (i.v.) with 20 ug/g body weight MEBTAT peptide
Group IIB was treated (i.v.) with 20 ug/g body weight TAT peptide
All animals were sacrificed and analyzed for metastases.

MDA-MB-231 cells = assay: 96-well invasion assay of MEBTAT and alanine-scanning mutants; type: cell-based; conditions: 96-well format, 1 hour treatment, 18 hours invasion
Description: The amino acids of the MEB sequence [PYEKVSAGNGGSSLS; SEQ ID NO: 1] were replaced, one amino acid at a time, with alanine. (Note that there are only […] mutants, as one of the parental amino acid residues. was already an alanine). Note also that this experiment was done one time, with 4 replicas at each data point.
A new assay was performed in a 96-well format. While the suppression of invasion is not as robust as that observed in the 24-well format, we still observe a 3-fold suppression of invasion with MEBTAT treatment over TAT or PBS. […] Altering any of the remaining amino acids completely eliminated the effect, indicating a critical role for both the YEKV (EGFR/src binding site) and the SAGNGGSSLS (beta-catenin binding site). Also important is the P (at residue #1) that links MEB to the TAT. The proline could be providing important access of the peptide to MUC1 binding sites.
MDA-MB-231 cells were treated for 1 hour with MEBTAT (M), TAT (T), PBS (P), or alanine scanning mutants of MEBTAT. Cells were treated with Calcein-AM and allowed to invade across an 8-uM Transwell into a Type I collagen gel for 18 hours. Invasion was analyzed by spectrophotometry.

β-catenin = target: T1, β-catenin (Homo sapiens, UniProt P35222); assay: β-catenin localization after peptide treatment; type: cell-based; conditions: MDA-MB-231 cells treated with peptide
T1 construct: endogenous in cells; host or cells: MDA-MB-231 breast cancer cells
T1 sequence (P35222 1-781): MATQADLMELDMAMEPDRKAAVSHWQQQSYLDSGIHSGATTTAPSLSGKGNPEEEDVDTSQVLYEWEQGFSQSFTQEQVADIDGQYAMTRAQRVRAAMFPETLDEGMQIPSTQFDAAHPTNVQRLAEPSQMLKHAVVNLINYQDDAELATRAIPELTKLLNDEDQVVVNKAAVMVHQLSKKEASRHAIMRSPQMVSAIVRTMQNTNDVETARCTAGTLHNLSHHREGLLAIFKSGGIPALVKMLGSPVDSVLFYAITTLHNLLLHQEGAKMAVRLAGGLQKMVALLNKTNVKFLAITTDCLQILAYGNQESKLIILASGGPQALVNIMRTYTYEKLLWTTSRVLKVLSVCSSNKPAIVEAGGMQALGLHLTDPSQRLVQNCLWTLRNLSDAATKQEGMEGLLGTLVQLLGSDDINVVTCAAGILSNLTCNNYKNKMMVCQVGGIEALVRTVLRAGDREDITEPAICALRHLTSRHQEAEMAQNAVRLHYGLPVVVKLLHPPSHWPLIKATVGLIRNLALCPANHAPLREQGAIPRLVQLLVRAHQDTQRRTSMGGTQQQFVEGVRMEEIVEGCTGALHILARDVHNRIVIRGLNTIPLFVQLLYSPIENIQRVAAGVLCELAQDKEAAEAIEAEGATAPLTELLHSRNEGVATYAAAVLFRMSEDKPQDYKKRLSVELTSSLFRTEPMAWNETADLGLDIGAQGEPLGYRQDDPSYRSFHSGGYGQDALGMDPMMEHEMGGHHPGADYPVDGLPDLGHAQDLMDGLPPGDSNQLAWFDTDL
Description: Immunofluorescence: Cells undergoing invasion through collagen gels are immunofluorescently labeled in situ (while in the collagen gel). For immunofluorescence on collagen gels, gels are permeabilized with 0.5% Triton X-100 in 10 mM Pipes (pH 6.8), 50 mM NaCl, 300 mM sucrose and 3 mM MgCl2 for 5 minutes at room temperature. Gels are blocked with 3% BSA (Sigma), 0.05% Tween 20, in a 1:1 solution of PBS and Enhancing Wash Buffer (Innovex). Primary antibodies are incubated overnight at 4° C., and gels washed for 6 hours in 1:1 PBS: Enhancing Wash Buffer. Secondary antibodies are incubated overnight at 4° C., and washed again for 6 hours at room temperature. Gels are then mounted, coverslipped and analyzed using a Zeiss laser scanning confocal microscope. The following antibodies are used: anti-biotin (streptavidin-Alexa594, 1:500, Molecular Probes), anti-Muc1 (1:100, Santa Cruz), anti-vinculin (V9131, 1:400, Sigma Chemical Company) anti-β-catenin (H-102, 1:100, Santa Cruz Biochemical), anti-fascin (FCN01, 1:50, Neomarkers), and phalloidin-Alexa546 (1:100, Molecular Probes). Secondary antibodies can be either Alexa 488 or 546 from Molecular Probes.

[5] = test system: MDA-MB-231 and MDA-MB-468 invasive breast cancer cell lines; assay: Invasion assay with TAT-conjugated MUC1-mimetic peptides, cell line not given; type: cell-based; conditions: TAT-conjugated peptide
Description: as §1
We have designed TAT-conjugated MUC1-mimetic peptides for their ability to inhibit the invasion of MDA-MB-231 and MDA-MB-468 invasive breast cancer cell lines.
Peptides were designed to carry the TAT transduction domain for entry into cells. The following peptides were designed, produced and tested: […]

[6] = 10 ug/g body weight i.p., end of 2 weeks
[7] = 20 ug/g body weight i.p., end of 2 weeks

Q: What does the source list for “M2: MUC1-β-catenin binding domain mimetic peptide, SEQ ID NO: 7 (SAGNGGSSLSY; listed as Homo sapiens)”?
A: cells invaded into a collagen matrix ([1]; 4 hour period, approximately 125 cells in PBS controls): less than 15 cells; inhibition of invasion into a collagen matrix ([1]; MDA-MB-468, 100 ng/ml peptide with Bioporter, vs PBS controls): approximately 8 fold; effect on invasion ([1]; MDA-MB-468, compared to PBS treated controls): inhibits invasion

Q: Which “decrease in cell invasiveness / block of invasion” value [2] does the source give for “TAT-PYEKVSAGNGGSSLS ({TAT}-PYEKVSAGNGGSSLS; listed as Homo sapiens) [MEBTAT]” here?
A: 5 fold and 6 fold

Q: And the “animals with tumor regression” value (MDA-MB-231 cell line [3]; [6])?
A: 1/7

Q: And the “tumor regression in the regressing animal” value (MDA-MB-231 cell line [3]; [6])?
A: 27%

Q: And the “increase in overall survival time compared to TAT” value (MDA-MB-231 cell line [3]; 20 ug/g body weight i.p.)?
A: 25%

Q: And the “animals with tumor regression” value (MDA-MB-231 cell line [3]; [7])?
A: 1/7

Q: And the “tumor regression in the regressing animal” value (MDA-MB-231 cell line [3]; [7])?
A: 7%

Q: And the “toxicity of the peptide treatment” value (MDA-MB-231 cell line [3]; 10 and 20 ug/g body weight i.p., 2 weeks)?
A: no detectable toxicity

Q: And the “tumor regrowth after surgical resection” value (MDA-MB-231 cell line [3]; all 3 groups, monitored 10 days after resection)?
A: no statistically significant difference in growth rates

Q: And the “decrease in tumor volume compared to TAT” value (MDA-MB-231 cell line [3]; all treatment groups, i.p., end of 2 weeks)?
A: 20%

Q: What about the toxicity (MDA-MB-231 cell line [4]; 2 weeks) of the same substance?
A: no detectable toxicity

Q: And the “tumor volume reduction in regressing animals” value (MDA-MB-231 cell line [4]; end of 2 weeks, individual mice)?
A: 7% and 9% and 21%

Q: And the “animals with tumor regression” value (MDA-MB-231 cell line [4]; once daily MTWThF, end of 2 weeks)?
A: 3/8

Q: What about the “visible metastases in diaphragms (animals)” value (MDA-MB-231 cell line [4]; sacrifice at 2 weeks) of the same substance?
A: 4/8

Q: What about the “visible metastases in livers (animals)” value (MDA-MB-231 cell line [4]; sacrifice at 2 weeks) of the same substance?
A: 1/8

Q: What about the “visible metastases in lungs (animals)” value (MDA-MB-231 cell line [4]; sacrifice at 2 weeks) of the same substance?
A: 0/8

Q: What about the “suppression of invasion over TAT or PBS” value (MDA-MB-231 cells) of the same substance?
A: 3 fold

Q: What about the β-catenin localization (β-catenin) of the same substance?
A: β-catenin localization at sites of focal adhesion and lamellapodia

Q: With “TAT-SAGNGGSSLS ({TAT}-SAGNGGSSLS; listed as Homo sapiens) [MBTAT]” as the substance, how does the suppression of invasion [5] read?
A: 8 fold

Q: Which increase of invasion [5] does the source give for “TAT-SSTDRSPYEKVSAGNGGSSLSYTNP ({TAT}-SSTDRSPYEKVSAGNGGSSLSYTNP; listed as Homo sapiens) [MTAT1, used for positive controls, reference compound]” here?
A: 18 fold
